Data set [1] has as its system Pseudotyped vesicular stomatitis virus (VSV) carrying a codon-optimized S protein of the Wuhan SARS-CoV-2 strain. Type of data set: cell-based. The note with it: read-out: IC50 (µM) Pseudotype VSV (A549ACE2-TM PRSS2).
For data set [2] the test system is unchanged. Type of data set: cell-based. The note with it: read-out: IC50 (µM) Pseudotype VSV (Vero).
Data set [3] is described as follows: in vitro. The following applies: monkey, vero cells.
A short description of data set [4]: in vitro. The note with it: human, a549-ace2-tmprss2 cells.
A short description of data set [5]: in vitro. The following applies: monkey, vero-e6 cells.

Molecules are shown by their SMILES. Where two headings read alike, the source gives them in different places. Some results are limits rather than exact numbers.

Six molecules from EP4122917A1, “C2-THIOETHER […] AND TETRAMERS AND USE THEREOF” (priority 2021, dated 2023) can be followed below.

Broadly, the IC50 is the point on the concentration scale where inhibition reaches its midpoint. What is called CC50 is the concentration giving 50% cytotoxicity. Read a high CC50 as lower toxicity to the cells. Consider `N#Cc1ccc(Sc2[nH]c3ccccc3c2C[C@H](NC(=O)CCC(CCC(=O)N[C@@H](Cc2c(Sc3ccc(C#N)cc3)[nH]c3ccccc23)C(=O)O)(CCC(=O)N[C@@H](Cc2c(Sc3ccc(C#N)cc3)[nH]c3ccccc23)C(=O)O)NC(=O)CN)C(=O)O)cc1` [Compound 7e], for which the figures for the concentration for half-maximal inhibition (IC50) in data set [1] and in data set [2] were 8.8 µM and 13.9 µM, respectively. The cytotoxic concentration (CC50) in the data set “in vitro [3]” and in the data set “in vitro [4]” was over 100 µM in each case.

As to `NCC(=O)NC(CCC(=O)N[C@@H](Cc1c(Sc2ccc(C(F)(F)F)cc2)[nH]c2ccccc12)C(=O)O)(CCC(=O)N[C@@H](Cc1c(Sc2ccc(C(F)(F)F)cc2)[nH]c2ccccc12)C(=O)O)CCC(=O)N[C@@H](Cc1c(Sc2ccc(C(F)(F)F)cc2)[nH]c2ccccc12)C(=O)O` [Compound 7d], the results for the IC50 in data set [1] and in data set [2] were 9.35 µM and 15.1 µM, respectively. In addition, the CC50 in the data set “in vitro [3]” and in the data set “in vitro [4]” was over 100 µM each time.

For `NCC(=O)NC(CCC(=O)N[C@@H](Cc1c(Sc2cccc([N+](=O)[O-])c2)[nH]c2ccccc12)C(=O)O)(CCC(=O)N[C@@H](Cc1c(Sc2cccc([N+](=O)[O-])c2)[nH]c2ccccc12)C(=O)O)CCC(=O)N[C@@H](Cc1c(Sc2cccc([N+](=O)[O-])c2)[nH]c2ccccc12)C(=O)O` [Compound 7b], the 50% inhibitory concentration (IC50) in data set [1] was 6.44 µM; in data set [2] it was 13 µM. Further, the CC50 in “in vitro [3]” and in “in vitro [4]” was over 100 µM throughout.

As for `NCC(=O)NC(CCC(=O)N[C@@H](Cc1c(Sc2ccc(F)cc2)[nH]c2ccccc12)C(=O)O)(CCC(=O)N[C@@H](Cc1c(Sc2ccc(F)cc2)[nH]c2ccccc12)C(=O)O)CCC(=O)N[C@@H](Cc1c(Sc2ccc(F)cc2)[nH]c2ccccc12)C(=O)O` [Compound 7f], the IC50 in data set [1] amounted to 31 µM; in data set [2], 28.4 µM. Further, the CC50 in the data set “in vitro [3]” and in “in vitro [4]” was over 100 µM in each case.

As to `CC(=O)c1ccc(Sc2[nH]c3ccccc3c2C[C@H](NC(=O)CCC(CCC(=O)N[C@@H](Cc2c(Sc3ccc(C(C)=O)cc3)[nH]c3ccccc23)C(=O)O)(CCC(=O)N[C@@H](Cc2c(Sc3ccc(C(C)=O)cc3)[nH]c3ccccc23)C(=O)O)NC(=O)CN)C(=O)O)cc1` [Compound 7c], the half-inhibitory concentration (IC50) was 1.94 µM in data set [1] and 1.4 µM in data set [2]. Further, the cytotoxic concentration (CC50) in “in vitro [3]” and in “in vitro [4]” was over 100 µM in each case. Besides, the CC50 at 24 h in the data set “in vitro [5]” is over 100 µM.

As for `NCC(=O)NC(CCC(=O)N[C@@H](Cc1c(Sc2ccc([N+](=O)[O-])cc2)[nH]c2ccccc12)C(=O)O)(CCC(=O)N[C@@H](Cc1c(Sc2ccc([N+](=O)[O-])cc2)[nH]c2ccccc12)C(=O)O)CCC(=O)N[C@@H](Cc1c(Sc2ccc([N+](=O)[O-])cc2)[nH]c2ccccc12)C(=O)O` [Compound 7a], the figures for the IC50 in data set [1] and in data set [2] were 2.4 µM and 0.23 µM, respectively. The half-maximal cytotoxic concentration (CC50) in the data set “in vitro [3]” and in “in vitro [4]” was over 100 µM throughout. Further, the CC50 at 24 h in the data set “in vitro [5]” was over 100 µM.
